Results from ChEMBL document CHEMBL1201862, “PubChem BioAssay data set” (2004).
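Briefly, cells in 96-well plates were exposed to five compound concentrations for 48 h, and endpoints were estimated by linear interpolation. GI50 = concentration required for 50% inhibition of growth.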 Active and inactive are the calls of the source. Cut-off read from the data, not from the text of the source: active = GI50 up to about 1.1 µM and inactive = higher.

Key:
Test in all cases: NCI-60 cell line screen, 48 h
Hs-578T = tested on: Hs-578T
OVCAR-3 = tested on: OVCAR-3
SF-295 = tested on: SF-295
MCF7 = tested on: MCF7
K562 = tested on: K562
CAKI-1 = tested on: CAKI-1
PC-3 = tested on: PC-3
MDA-N = tested on: MDA-N
MDA-MB-231 = tested on: MDA-MB-231
HT-29 = tested on: HT-29
DU-145 = tested on: DU-145
TK-10 = tested on: TK-10
HCC 2998 = tested on: HCC 2998
SF-268 = tested on: SF-268
COLO 205 = tested on: COLO 205
NCI/ADR-RES = tested on: NCI/ADR-RES
OVCAR-8 = tested on: OVCAR-8
RPMI-8226 = tested on: RPMI-8226
HOP-62 = tested on: HOP-62
RXF 393 = tested on: RXF 393

Row | Structure (SMILES) | GI50 (Hs-578T) | GI50 (OVCAR-3) | GI50 (SF-295) | GI50 (MCF7) | GI50 (K562) | GI50 (CAKI-1) | GI50 (PC-3) | GI50 (MDA-N) | GI50 (MDA-MB-231) | GI50 (HT-29) | GI50 (DU-145) | GI50 (TK-10) | GI50 (HCC 2998) | GI50 (SF-268) | GI50 (COLO 205) | GI50 (NCI/ADR-RES) | GI50 (OVCAR-8) | GI50 (RPMI-8226) | GI50 (HOP-62) | GI50 (RXF 393)
1 | CN(C)c1ccc(C2CC(C)(O)Oc3cc4c(cc32)OCO4)cc1 (centres undefined) | 61 µM (inactive) | 64.3 µM (inactive) | 29.1 µM (inactive) | 38.4 µM (inactive) | 48 µM (inactive) | 66.2 µM (inactive) | 39.4 µM (inactive) | 18.6 µM (inactive) | 18.2 µM (inactive) | 26.9 µM (inactive) | > 100 µM (inactive) | 59.3 µM (inactive) | 32.4 µM (inactive) | 46.7 µM (inactive) | 23.4 µM (inactive) | 35.2 µM (inactive) | 29.5 µM (inactive) | 19.7 µM (inactive) | 62.4 µM (inactive) | 32.7 µM (inactive)
2 | CCOC(=O)c1ccc(C(=O)/C(C#N)=C2\CCCN2)n1C | > 100 µM (inactive) | 68.4 µM (inactive) | > 100 µM (inactive) | 40.4 µM (inactive) | 13.3 µM (inactive) | > 100 µM (inactive) | > 100 µM (inactive) | 34 µM (inactive) | > 100 µM (inactive) | 79.4 µM (inactive) | 95.1 µM (inactive) | – | > 100 µM (inactive) | > 100 µM (inactive) | > 100 µM (inactive) | 34.2 µM (inactive) | > 100 µM (inactive) | 0.703 µM (active) | > 100 µM (inactive) | 25.7 µM (inactive)
3 | CC1=NN(c2cccc(Cl)c2)C2(SCC(=O)N2c2nc3ccccc3s2)/C1=C\c1ccccc1O (centres undefined) | 27.8 µM (inactive) | 15.8 µM (inactive) | 25.8 µM (inactive) | 20 µM (inactive) | 5.65 µM (inactive) | 21.4 µM (inactive) | 19.8 µM (inactive) | 22.3 µM (inactive) | 20.2 µM (inactive) | 23.4 µM (inactive) | 18.3 µM (inactive) | 42.4 µM (inactive) | 21.6 µM (inactive) | 22.6 µM (inactive) | – | 19.7 µM (inactive) | 18.1 µM (inactive) | 11.9 µM (inactive) | 20.9 µM (inactive) | 17 µM (inactive)
4 | CC(C)(O)C1CC[C@]2(C)[C@H]3CC[C@@H]4[C@@]5(C)CCCC(C)(C)[C@@H]5CC[C@@]4(C)[C@]3(C)CC[C@@H]12 (some centres undefined) | > 100 µM (inactive) | > 100 µM (inactive) | > 100 µM (inactive) | > 100 µM (inactive) | – | > 100 µM (inactive) | > 100 µM (inactive) | > 100 µM (inactive) | > 100 µM (inactive) | > 100 µM (inactive) | > 100 µM (inactive) | > 100 µM (inactive) | > 100 µM (inactive) | > 100 µM (inactive) | > 100 µM (inactive) | > 100 µM (inactive) | > 100 µM (inactive) | > 100 µM (inactive) | > 100 µM (inactive) | > 100 µM (inactive)
5 | COC1(C)/C=N/CC(C)(C)NC(=O)C(C)(OC)/C=N/CC(C)(C)NC1=O (centres undefined) | > 10 µM (inactive) | – | > 10 µM (inactive) | > 10 µM (inactive) | > 10 µM (inactive) | > 10 µM (inactive) | > 10 µM (inactive) | > 10 µM (inactive) | > 10 µM (inactive) | > 10 µM (inactive) | > 10 µM (inactive) | > 10 µM (inactive) | > 10 µM (inactive) | > 10 µM (inactive) | > 10 µM (inactive) | > 10 µM (inactive) | > 10 µM (inactive) | > 10 µM (inactive) | > 10 µM (inactive) | > 10 µM (inactive)
6 | CO/[N+]([O-])=C\C(=O)N/C=C/C(=O)O | > 100 µM (inactive) | > 100 µM (inactive) | > 100 µM (inactive) | > 100 µM (inactive) | > 100 µM (inactive) | > 100 µM (inactive) | > 100 µM (inactive) | > 100 µM (inactive) | > 100 µM (inactive) | > 10 µM (inactive) | > 100 µM (inactive) | – | > 100 µM (inactive) | > 100 µM (inactive) | > 100 µM (inactive) | > 100 µM (inactive) | > 100 µM (inactive) | 79.6 µM (inactive) | > 100 µM (inactive) | > 100 µM (inactive)
7 | COC1(CC[C@H](C)COC2OC(CO)C(O)C(O)C2O)O[C@H]2C[C@H]3[C@@H]4CC=C5C[C@@H](OC6OC(CO)C(OC7OC(C)C(O)C(O)C7O)C(O)C6OC6OC(C)C(O)C(O)C6O)CC[C@]5(C)[C@H]4CC[C@]3(C)[C@H]2[C@@H]1C (some centres undefined) | 1.9 µM (inactive) | 6.1 µM (inactive) | 4.29 µM (inactive) | 8.45 µM (inactive) | – | 1.48 µM (inactive) | 3.28 µM (inactive) | 2.88 µM (inactive) | 5.05 µM (inactive) | 2.52 µM (inactive) | 2.42 µM (inactive) | 35.6 µM (inactive) | 6.32 µM (inactive) | 3.24 µM (inactive) | 6.25 µM (inactive) | 3.67 µM (inactive) | 3.37 µM (inactive) | 2.32 µM (inactive) | 1.87 µM (inactive) | 4.57 µM (inactive)
